Among the data in ChEMBL document CHEMBL4411344, “Synthesis and biological evaluation of new long-chain squaramides as anti-chagasic agents in the BALB/c mouse model” (Bioorg Med Chem, 2019) are IC50 and selectivity ratio values, retold here.

Each structure is given as a SMILES string.

The test system of data set [1] is Trypanosoma cruzi. The data set is described as follows: Trypanocidal activity against Trypanosoma cruzi TINF/CH/1956/Tulahuen DTU 6 epimastigotes after 72 hrs by resazurin dye based assay. Particulars: TINF/CH/1956/Tulahuen DTU 6, 72 h. The format is functional, organism-based. A general note: Alamar Blue is a resazurin reagent that responds to reducing activity.

Data set [2] is described as follows: Selectivity index, ratio of IC50 for African green monkey Vero cells to IC50 for Trypanosoma cruzi IRHOD/CO/2008/SN3 DTU 1 epimastigotes. The format is toxicity. Particulars: read-out: Ratio IC50.
The subject of data set [3] is Trypanosoma cruzi. The data set is described as follows: Trypanocidal activity against Trypanosoma cruzi IRHOD/CO/2008/SN3 DTU 1 epimastigotes after 72 hrs by resazurin dye based assay. The format is functional, organism-based. The settings on record: IRHOD/CO/2008/SN3 DTU 1, 72 h.
The subject of a further data set is Vero. The data set can be described thus: Cytotoxicity against African green monkey Vero cells assessed as reduction in cell viability after 72 hrs by resazurin dye based assay. Particulars: Chlorocebus sabaeus.
Data set [4] can be described thus: Selectivity index, ratio of IC50 for African green monkey Vero cells to IC50 for Trypanosoma cruzi TINF/CH/1956/Tulahuen DTU 6 epimastigotes. The class given is toxicity. Particulars: read-out: Ratio IC50.
Data set [5] deals with Trypanosoma cruzi. The data set can be described thus: Trypanocidal activity against Trypanosoma cruzi MHOM/Pe/2011/Arequipa DTU 5 epimastigotes after 72 hrs by resazurin dye based assay. The format is functional, organism-based. Particulars: MHOM/Pe/2011/Arequipa DTU 5, 72 h.
Data set [6] is described as follows: Selectivity index, ratio of IC50 for African green monkey Vero cells to IC50 for Trypanosoma cruzi MHOM/Pe/2011/Arequipa DTU 5 epimastigotes. The settings on record: read-out: Ratio IC50. The format is toxicity.
A short description of data set [7]: Selectivity index, ratio of IC50 for African green monkey Vero cells to IC50 for Trypanosoma cruzi TINF/CH/1956/Tulahuen DTU 6 amastigotes infected in African green monkey Vero cells. The settings on record: read-out: Ratio IC50. The class given is toxicity.
Data set [8] in a line: Selectivity index, ratio of IC50 for African green monkey Vero cells to IC50 for Trypanosoma cruzi IRHOD/CO/2008/SN3 DTU 1 amastigotes infected in African green monkey Vero cells. The class given is toxicity. The settings on record: read-out: Ratio IC50.
In data set [9] the test system is Trypanosoma cruzi. The data set is described as follows: Trypanocidal activity against Trypanosoma cruzi IRHOD/CO/2008/SN3 DTU 1 amastigotes infected in African green monkey Vero cells after 72 hrs by Giemsa-staining based microscopic assay. The format is functional, organism-based. Particulars: IRHOD/CO/2008/SN3 DTU 1, Vero.
Data set [10] deals with Trypanosoma cruzi. The data set is described as follows: Trypanocidal activity against Trypanosoma cruzi IRHOD/CO/2008/SN3 DTU 1 trypomastigotes derived from infected Balb/c mouse after 72 hrs by resazurin dye based assay. The class given is functional, organism-based. The settings on record: IRHOD/CO/2008/SN3 DTU 1, 72 h.
For data set [11], the system named is Trypanosoma cruzi. The data set can be described thus: Trypanocidal activity against Trypanosoma cruzi TINF/CH/1956/Tulahuen DTU 6 trypomastigotes derived from infected Balb/c mouse after 72 hrs by resazurin dye based assay. The class given is functional, organism-based. Particulars: TINF/CH/1956/Tulahuen DTU 6, 72 h.
Data set [12] is described as follows: Selectivity index, ratio of IC50 for African green monkey Vero cells to IC50 for Trypanosoma cruzi IRHOD/CO/2008/SN3 DTU 1 trypomastigotes derived from infected Balb/c mouse. The settings on record: read-out: Ratio IC50. The class given is toxicity.
Data set [13] in a line: Selectivity index, ratio of IC50 for African green monkey Vero cells to IC50 for Trypanosoma cruzi TINF/CH/1956/Tulahuen DTU 6 trypomastigotes derived from infected Balb/c mouse. The class given is toxicity. Particulars: read-out: Ratio IC50.
The test system of data set [14] is Trypanosoma cruzi. The data set can be described thus: Trypanocidal activity against Trypanosoma cruzi TINF/CH/1956/Tulahuen DTU 6 amastigotes infected in African green monkey Vero cells after 72 hrs by Giemsa-staining based microscopic assay. The class given is functional, organism-based. The settings on record: TINF/CH/1956/Tulahuen DTU 6, Vero.
Data set [15] deals with Trypanosoma cruzi. The data set can be described thus: Trypanocidal activity against Trypanosoma cruzi MHOM/Pe/2011/Arequipa DTU 5 trypomastigotes derived from infected Balb/c mouse after 72 hrs by resazurin dye based assay. Particulars: MHOM/Pe/2011/Arequipa DTU 5, 72 h. The class given is functional, organism-based.
Data set [16] has as its system Trypanosoma cruzi. The data set is described as follows: Trypanocidal activity against Trypanosoma cruzi MHOM/Pe/2011/Arequipa DTU 5 amastigotes infected in African green monkey Vero cells after 72 hrs by Giemsa-staining based microscopic assay. The format is functional, organism-based. The settings on record: MHOM/Pe/2011/Arequipa DTU 5, Vero.
Data set [17] in a line: Selectivity index, ratio of IC50 for African green monkey Vero cells to IC50 for Trypanosoma cruzi MHOM/Pe/2011/Arequipa DTU 5 amastigotes infected in African green monkey Vero cells. The class given is toxicity. Particulars: read-out: Ratio IC50.
Data set [18] in a line: Selectivity index, ratio of IC50 for African green monkey Vero cells to IC50 for Trypanosoma cruzi MHOM/Pe/2011/Arequipa DTU 5 trypomastigotes derived from infected Balb/c mouse. The class given is toxicity. The settings on record: read-out: Ratio IC50.

Turning to `CCCCCCCCCCCC[N+](C)(C)CCCN(C)c1c(OCC)c(=O)c1=O`, the IC50 – broadly, the midpoint of a concentration-inhibition curve – amounted to 89.1 µM in the data set with Trypanosoma cruzi [1], 74.5 µM in the data set on Trypanosoma cruzi [3], 353 µM in the data set on Vero and 63.3 µM in the data set on Trypanosoma cruzi [5]. Also, the selectivity ratio was determined as 4.7 in data set [2], 4 in data set [4] and 5.6 in data set [6].
With `CCCCCCCCCCCCOc1c(N(C)CCCN(C)C)c(=O)c1=O`, the selectivity ratio in [7] worked out at 11.4; in data set [8] it was 10.3; in [12], 12.1; in data set [2], 15; in data set [13], 15.3; in data set [4], 19.9. For the same compound, the selectivity ratio in data set [6] turned out to be 8. Besides, the IC50 in the data set with Trypanosoma cruzi [9] stood at 28.4 µM; in the data set on Trypanosoma cruzi [10], 24.1 µM; with Trypanosoma cruzi [1], 14.6 µM; in the data set with Trypanosoma cruzi [11], 19.1 µM; in the data set with Trypanosoma cruzi [3], 19.4 µM; in the data set on Vero, 291 µM. In addition, the IC50 with Trypanosoma cruzi [14] came out at 25.5 µM; in the data set on Trypanosoma cruzi [5], 36.2 µM.
With `CN(C)CCCN(C)c1c(N)c(=O)c1=O`, the selectivity ratio stood at 20.8 in data set [7]; 17.1 in [8]; 35.4 in data set [12]; 31.8 in [2]; 31.8 in data set [13]; 27 in data set [17]. In addition, the selectivity ratio in data set [4] turned out to be 25.1; in data set [6], 25.3; in [18], 32.2. The IC50 was 33.2 µM in the data set with Trypanosoma cruzi [15]; 62.6 µM in the data set on Trypanosoma cruzi [9]; 39.6 µM in the data set on Trypanosoma cruzi [16]; 30.2 µM in the data set with Trypanosoma cruzi [10]; 42.6 µM in the data set on Trypanosoma cruzi [1]; 33.6 µM in the data set with Trypanosoma cruzi [11]. The concentration for half-maximal inhibition (IC50) with Trypanosoma cruzi [3] amounted to 33.7 µM; in the data set with Vero it was 1070 µM; with Trypanosoma cruzi [14], 51.3 µM; in the data set on Trypanosoma cruzi [5], 42.3 µM.
For `CCCCNc1c(N(C)CCCN(C)C)c(=O)c1=O`, the selectivity ratio was 37.5 in data set [7]; 33.5 in [8]; 58.6 in data set [12]; 28.9 in data set [2]; 49.3 in [13]; 29.9 in data set [17]. In addition, the selectivity ratio turned out to be 48.3 in [4], 35.4 in data set [6] and 42.2 in data set [18]. For the same compound, the IC50 was 10.4 µM in the data set with Trypanosoma cruzi [15]; 13.1 µM in the data set on Trypanosoma cruzi [9]; 14.7 µM with Trypanosoma cruzi [16]; 7.5 µM in the data set with Trypanosoma cruzi [10]; 9.1 µM in the data set with Trypanosoma cruzi [1]; 8.9 µM with Trypanosoma cruzi [11]. Moreover, the IC50 was determined as 15.2 µM in the data set on Trypanosoma cruzi [3], 439 µM with Vero, 11.7 µM with Trypanosoma cruzi [14] and 12.4 µM in the data set with Trypanosoma cruzi [5].
Consider `CN(C)CCCN(C)c1c(NCCCN(C)CCCNc2c(N(C)CCCN(C)C)c(=O)c2=O)c(=O)c1=O`, for which the IC50 in the data set on Trypanosoma cruzi [1] worked out at 241 µM; in the data set on Trypanosoma cruzi [3], 311 µM; with Vero, 2170 µM; with Trypanosoma cruzi [5], 177 µM. For the same compound, the selectivity ratio was 7 in [2], 9 in data set [4] and 12.2 in [6].
In the case of `CN(C)CCCN(C)c1c(N(C)CCCN(C)C)c(=O)c1=O`, the IC50 was found to be 360 µM with Trypanosoma cruzi [1], 404 µM in the data set with Trypanosoma cruzi [3], 1140 µM in the data set on Vero and 107 µM in the data set on Trypanosoma cruzi [5]. In addition, the figures for the selectivity ratio in data set [2], in data set [4] and in data set [6] were 2.8, 3.2 and 10.6, respectively.
Turning to `CCCCCCCCCCCCCCCCOP(=O)([O-])OCC[N+](C)(C)C` [MILTEFOSINE], the selectivity ratio was 0.7 in data set [7]; 0.5 in data set [8]; 0.6 in data set [12]; 0.4 in data set [2]; 1.1 in data set [13]; 0.7 in [17]. In addition, the selectivity ratio in [4] stood at 0.9; in [6] it was 1; in data set [18] it was 1.2. Moreover, the IC50 with Trypanosoma cruzi [15] stood at 18.8 µM; in the data set with Trypanosoma cruzi [9], 39.7 µM; with Trypanosoma cruzi [16] it was 29.6 µM; in the data set with Trypanosoma cruzi [10], 34.8 µM; in the data set with Trypanosoma cruzi [1], 22.9 µM; in the data set with Trypanosoma cruzi [11], 20.1 µM. Further, the IC50 worked out at 55.9 µM in the data set on Trypanosoma cruzi [3], 21.6 µM with Vero, 31.8 µM with Trypanosoma cruzi [14] and 20.8 µM in the data set on Trypanosoma cruzi [5].
For `CCCCCCCCNc1c(N(C)CCCN(C)C)c(=O)c1=O`, the IC50 in the data set with Trypanosoma cruzi [1] worked out at 82 µM; in the data set on Trypanosoma cruzi [3], 87.8 µM; with Vero it was 1150 µM; in the data set with Trypanosoma cruzi [5] it was 102 µM. The selectivity ratio in data set [2] was found to be 13.2; in data set [4], 14.2; in data set [6], 11.4.
On to `CCNc1c(N(C)CCCN(C)C)c(=O)c1=O`, for which the selectivity ratio turned out to be 28.5 in [7]; 16.5 in [8]; 32.1 in data set [12]; 22 in [2]; 33.8 in data set [13]; 32.3 in data set [17]. The selectivity ratio in [4] was determined as 32.4; in data set [6], 21.8; in data set [18], 30.9. For the same compound, the IC50 was determined as 29.1 µM in the data set on Trypanosoma cruzi [15]; 54.5 µM in the data set on Trypanosoma cruzi [9]; 27.8 µM with Trypanosoma cruzi [16]; 28 µM in the data set on Trypanosoma cruzi [10]; 27.8 µM in the data set on Trypanosoma cruzi [1]; 26.6 µM in the data set on Trypanosoma cruzi [11]. The IC50 worked out at 41 µM in the data set on Trypanosoma cruzi [3], 900 µM in the data set with Vero, 31.6 µM in the data set on Trypanosoma cruzi [14] and 41.3 µM in the data set with Trypanosoma cruzi [5].
In the case of `CCCCCCCCCCCC[N+](C)(C)CCCN(C)c1c(O)c(=O)c1=O`, the IC50 in the data set with Trypanosoma cruzi [1] was determined as 66.1 µM; in the data set with Trypanosoma cruzi [3], 33.1 µM; with Vero, 160 µM; in the data set on Trypanosoma cruzi [5], 22.1 µM. The values for the selectivity ratio in data set [2], in [4] and in data set [6] were 4.8, 2.4 and 7.2, respectively.
Consider `CCCCCCCCCCCCNc1c(N(C)CCCN(C)C)c(=O)c1=O`, for which the IC50 worked out at 49.5 µM with Trypanosoma cruzi [1], 37.5 µM in the data set with Trypanosoma cruzi [3], 128 µM in the data set with Vero and 64.6 µM with Trypanosoma cruzi [5]. For the same compound, the figures for the selectivity ratio in [2], in [4] and in [6] were 3.4, 2.6 and 2, respectively.
